In article PMC6792352, “Limited Chemical Structural Diversity Found to Modulate Thyroid Hormone Receptor in the Tox21 Chemical Library” (Environmental Health Perspectives, 2019):
Structures can show the parent of a compound that is named as a salt.

experiment: in vitro; conditions: rat, gh3-tre-luc cells, AC50 (uM) modified / 1000

`CC1CC(=O)CC(C)(C)C1` (stereo not drawn) [3,3,5-Trimethylcyclohexanone] and `C[C@H]1C(=O)O[C@@H]2CCN3CC=C(COC(=O)[C@](C)(O)[C@]1(C)O)[C@H]23` [Monocrotaline] cannot be ordered by CC50 at 24 h: over 90 µM for the first, over 90 µM for the second.

First: Oc1c(Cl)cc(Cl)c2cccnc12 [Chloroxine]
Second: NC(=S)c1c(Cl)cccc1Cl [Chlorthiamid]
The CC50 at 24 h of the first is lower: 5.91 µM for the first, over 90 µM for the second.

`CCCC(=O)C(C)=O` [2,3-Hexanedione] and `CCOC(=O)CC(=O)OCC` [Diethyl propanedioate] cannot be ordered by CC50 at 24 h: over 90 µM for the first, over 90 µM for the second.

Compared with `CN1CCCC1` [N-Methylpyrrolidine], `O=C1CCCCCN1SSN1CCCCCC1=O` [1,1'-Disulfanediyldiazepan-2-one] is lower in CC50 at 24 h: over 90 µM for the first, 53.9 µM for the second.

`CCn1nc(C)c2c1C(=O)NCC(c1ccc(O)cc1)=N2` [PharmaGSID_47263] and `O=C1Nc2ccc(Cl)cc2C(c2ccccc2Cl)=NC1O` (stereo not drawn) [Lorazepam] cannot be ordered by CC50 at 24 h: over 90 µM for the first, over 50 µM for the second.

`C[N+]1(C)CCCC(OC(=O)C(O)(c2ccccc2)c2ccccc2)C1` (stereo not drawn) [Mepenzolate bromide] and `O=C1CCC(c2ccccc2)(C2CCN(Cc3ccccc3)CC2)C(=O)N1` (stereo not drawn) [Benzetimide] cannot be ordered by CC50 at 24 h: over 20 µM for the first, over 50 µM for the second.

`Nc1ccc(Oc2ccc(N)c(N)c2)cc1` [3,4,4'-Triaminodiphenyl ether] and `Nc1ccc(S(=O)(=O)Nc2ccccn2)cc1` [Sulfapyridine] cannot be ordered by CC50 at 24 h: 75.2 µM for the first, over 20 µM for the second.

Going from `CCC(C)n1ncn(-c2ccc(N3CCN(c4ccc(OC[C@H]5CO[C@](Cn6cncn6)(c6ccc(Cl)cc6Cl)O5)cc4)CC3)cc2)c1=O` (mixture of isomers) [Itraconazole] to `CCN1CC(CCN2CCOCC2)C(c2ccccc2)(c2ccccc2)C1=O` (stereo not drawn) [Doxapram hydrochloride], the CC50 at 24 h rises from 3.2 µM to over 50 µM.

First: CNCC[C@@H](Oc1ccccc1C)c1ccccc1 [Atomoxetine hydrochloride]
Second: O=C(Oc1ccccc1C(=O)O)c1ccccc1O [Salsalate]
The CC50 at 24 h of the first is lower: 44.9 µM for the first, over 50 µM for the second.

`NC(=O)Cn1c(=O)cc(CCN2CCN(c3nccc4sccc34)CC2)c2ccc(F)cc21` [Trelanserin] and `CC1=C(CC(=O)O)c2cc(F)ccc2/C1=C\c1ccc(S(C)(=O)=O)cc1` [Sulindac sulfone] cannot be ordered by CC50 at 24 h: 52.8 µM for the first, over 50 µM for the second.

`CCC(=O)O[C@@H](O[P@](=O)(CCCCc1ccccc1)CC(=O)N1C[C@H](C2CCCCC2)C[C@H]1C(=O)O)C(C)C` [Fosinopril sodium] and `C[C@H](CSC(=O)c1ccccc1)C(=O)N1C[C@@H](Sc2ccccc2)C[C@H]1C(=O)O` [Zofenopril] cannot be ordered by CC50 at 24 h: over 50 µM for the first, over 50 µM for the second.

`CC[C@@H](C)[C@H](N)C(=O)O` [L-Alloisoleucine] and `CCCC(=O)OCCC(C)C` [Isopentyl butyrate] cannot be ordered by CC50 at 24 h: over 50 µM for the first, over 90 µM for the second.

`CCCCC1C(=O)N(c2ccccc2)N(c2ccccc2)C1=O` [Phenylbutazone] and `c1ccc(-c2cccc(-c3ccccc3)c2)cc1` [1,1':3',1''-Terphenyl] cannot be ordered by CC50 at 24 h: over 90 µM for the first, over 90 µM for the second.

`COc1cc(C(=S)N2CCOCC2)cc(OC)c1OC` [Tritiozine] and `CC(=O)OCC1=C(C(=O)O)N2C(=O)[C@@H](NC(=O)Cc3cccs3)[C@H]2SC1` [Cephalothin] cannot be ordered by CC50 at 24 h: over 50 µM for the first, over 50 µM for the second.

First: CN(CCCCCCCCCCN(C)C(=O)Oc1cccc([N+](C)(C)C)c1)C(=O)Oc1cccc([N+](C)(C)C)c1 [Demecarium bromide]
Second: CCCCCCCCCCCC[N+](C)(C)Cc1ccccc1 [Benzyldimethyldodecylammonium chloride]
The CC50 at 24 h of the first is higher: over 20 µM for the first, 10.6 µM for the second.

Going from `NC(=O)CN1CC(O)CC1=O` (stereo not drawn) [Oxiracetam] to `N[C@H](C(=O)O)[C@@H]1CC(Cl)=NO1` [Acivicin], the CC50 at 24 h falls from over 50 µM to 3.86 µM.

`C[C@@H]1O[C@@H](OC[C@H]2O[C@@H](Oc3c(-c4ccc(OCCO)c(OCCO)c4)oc4cc(OCCO)cc(O)c4c3=O)[C@H](O)[C@@H](O)[C@@H]2O)[C@H](O)[C@H](O)[C@H]1O` [Troxerutin] and `CC(C)CCCCCOC(=O)CCCOc1ccc(Cl)cc1Cl` [2,4-DB-isooctyl ester] cannot be ordered by CC50 at 24 h: over 50 µM for the first, over 90 µM for the second.

`NC(=O)OCCCc1ccccc1` [Phenprobamate] and `CCOC(=O)C1OC1c1ccccc1` (stereo not drawn) [Ethyl 3-phenylglycidate] cannot be ordered by CC50 at 24 h: over 50 µM for the first, over 90 µM for the second.

`O=C(O)c1ccc(Cl)cc1Cl` [2,4-Dichlorobenzoic acid] and `O=Cc1ccc(Cl)cc1` [4-Chlorobenzaldehyde] cannot be ordered by CC50 at 24 h: over 90 µM for the first, over 90 µM for the second.

`OC1OCCOC1O` (stereo not drawn) [1,4-Dioxane-2,3-diol] and `O=C(O)CF` [Sodium fluoroacetate] cannot be ordered by CC50 at 24 h: over 90 µM for the first, over 90 µM for the second.

`CC(=O)OC[C@H]1O[C@@H](n2ncc(=O)[nH]c2=O)[C@H](OC(C)=O)[C@@H]1OC(C)=O` [6-Azaribine] and `CN1C(=O)C[C@@H](C(=O)N[C@@H](Cc2c[nH]cn2)C(=O)N2CCC[C@H]2C(N)=O)NC1=O` [Taltirelin] cannot be ordered by CC50 at 24 h: over 50 µM for the first, over 50 µM for the second.

`COC(=O)c1sccc1S(N)(=O)=O` [Methyl 3-sulfamoylthiophene-2-carboxylate] and `CCCCNc1ccc(C(=O)OCCN(C)C)cc1` [Tetracaine hydrochloride] cannot be ordered by CC50 at 24 h: over 90 µM for the first, over 20 µM for the second.

`N#Cc1ccc(CC(=O)c2cccc(C(F)(F)F)c2)cc1` [4-{2-Oxo-2-[3-(trifluoromethyl)phenyl]ethyl}benzonitrile] and `O=[N+]([O-])c1cccc(C(F)(F)F)c1` [1-Nitro-3-(trifluoromethyl)benzene] cannot be ordered by CC50 at 24 h: over 90 µM for the first, over 90 µM for the second.

Compared with `CC(C)CC(C)CC(O)CC(C)C` (stereo not drawn) [2,6,8-Trimethyl-4-nonanol], `CCC(C)c1cccc(C(C)CC)c1O` (stereo not drawn) [2,6-Di(butan-2-yl)phenol] is lower in CC50 at 24 h: over 90 µM for the first, 72.2 µM for the second.

`N#CCBr` [Bromoacetonitrile] and `OCCc1ccncc1` [2-(Pyridin-4-yl)ethanol] cannot be ordered by CC50 at 24 h: over 100 µM for the first, over 90 µM for the second.

`c1ccncc1` [Pyridine hydrochloride] and `Clc1cccc(-c2cc(Cl)cc(Cl)c2)c1` [Aroclor 1016] cannot be ordered by CC50 at 24 h: over 90 µM for the first, over 90 µM for the second.

`Nc1ccn([C@@H]2CS[C@H](CO)O2)c(=O)n1` [Lamivudine] and `C[C@@H]1C[C@H]2[C@@H]3CCC4=CC(=O)C=C[C@]4(C)[C@@]3(F)[C@@H](O)C[C@]2(C)[C@H]1C(=O)CO` [Desoximetasone] cannot be ordered by CC50 at 24 h: over 90 µM for the first, over 50 µM for the second.

`C=CC(=O)NC(C)C` [N-Isopropylacrylamide] and `CCCCCCCC(=O)OC` [Methyl octanoate] cannot be ordered by CC50 at 24 h: over 90 µM for the first, over 90 µM for the second.

`CCC(C)(C)OC(=O)N[C@@H](Cc1c[nH]c2ccccc12)C(=O)N[C@@H](CCSC)C(=O)N[C@@H](CC(=O)O)C(=O)N[C@@H](Cc1ccccc1)C(N)=O` [Amogastrin] and `COC(=O)N(OC)c1ccccc1COc1ccn(-c2ccc(Cl)cc2)n1` [Pyraclostrobin] cannot be ordered by CC50 at 24 h: over 50 µM for the first, 59.8 µM for the second.

`O=C(COP(=O)(O)O)[C@@H](O)[C@H](O)[C@H](O)COP(=O)(O)O` [D-Fructose 1,6-bisphosphate trisodium] and `CNC[C@H](O)[C@@H](O)[C@H](O)[C@H](O)CO` [Meglumine] cannot be ordered by CC50 at 24 h: over 50 µM for the first, over 90 µM for the second.

`C=C(C)CN(CC)c1c([N+](=O)[O-])cc(C(F)(F)F)cc1[N+](=O)[O-]` [Ethalfluralin] and `Cc1cc(C)cc(O)c1` [3,5-Dimethylphenol] cannot be ordered by CC50 at 24 h: over 90 µM for the first, over 90 µM for the second.

`CN(CCO)CC(O)Cn1cnc2c1c(=O)n(C)c(=O)n2C` (stereo not drawn) [Xanthinol niacinate] and `C#C[C@]1(O)CC[C@H]2[C@@H]3CCC4=CC(=O)CCC4=C3C=C[C@@]21CC` [Gestrinone] cannot be ordered by CC50 at 24 h: over 50 µM for the first, over 50 µM for the second.

`Nc1nc2nc[nH]c2c(=S)[nH]1` [6-Thioguanine] gave a CC50 at 24 h of over 90 µM.

same assay, conditions: rat, gh3-tre-luc cells, AC50 (uM) modified / 1000, Tox21_110001=Tox21_111647; viability, 1 nM T3 present, 24 h

Work on `C[C@]12C=CC(=O)C=C1CC[C@@H]1[C@@H]2CC[C@@]2(C)[C@H]1CC[C@]2(C)O` [Methandrostenolone] yielded a CC50 at 24 h of over 50 µM.

same assay, conditions: rat, gh3-tre-luc cells, AC50 (uM) modified / 1000, Tox21_110001=Tox21_111872; viability, 1 nM T3 present, 24 h

`CCN(C(C)=O)c1cccc(-c2ccnc3c(C#N)cnn23)c1` [Zaleplon] showed a CC50 at 24 h of over 50 µM.

same assay, conditions: rat, gh3-tre-luc cells, AC50 (uM) modified / 1000, Tox21_110001=Tox21_112111; viability, 1 nM T3 present, 24 h

For `C[C@]12CCC(=O)C(O)=C1CC[C@@H]1[C@@H]2CC[C@]2(C)C(=O)CC[C@@H]12` [4-Hydroxyandrostenedione], the CC50 at 24 h was over 50 µM.

same assay, conditions: rat, gh3-tre-luc cells, AC50 (uM) modified / 1000, Tox21_110001=Tox21_200140; viability, 1 nM T3 present, 24 h

`O=C(O)C(Br)CBr` (stereo not drawn) [2,3-Dibromopropionic acid] showed a CC50 at 24 h of over 90 µM.

same assay, conditions: rat, gh3-tre-luc cells, AC50 (uM) modified / 1000, Tox21_110001=Tox21_200535; viability, 1 nM T3 present, 24 h

For `O=CC(Br)(Br)Br` [Tribromoacetaldehyde], the CC50 at 24 h was 25.5 µM.

same assay, conditions: rat, gh3-tre-luc cells, AC50 (uM) modified / 1000, Tox21_110001=Tox21_201053; viability, 1 nM T3 present, 24 h

For `CCOC(=O)CCl` [Ethyl chloroacetate], the CC50 at 24 h was over 90 µM.

same assay, conditions: rat, gh3-tre-luc cells, AC50 (uM) modified / 1000, Tox21_110001=Tox21_202072; viability, 1 nM T3 present, 24 h

Work on `ClC1=C(Cl)[C@]2(Cl)[C@H]3[C@H]([C@@H]4C=C[C@H]3C4)[C@@]1(Cl)C2(Cl)Cl` [Aldrin] yielded a CC50 at 24 h of 51.6 µM.

same assay, conditions: rat, gh3-tre-luc cells, AC50 (uM) modified / 1000, Tox21_110001=Tox21_202862; viability, 1 nM T3 present, 24 h

Compound `CCCCCCI` [1-Iodohexane] has a CC50 at 24 h of over 90 µM.

same assay, conditions: rat, gh3-tre-luc cells, AC50 (uM) modified / 1000, Tox21_110001=Tox21_300172; viability, 1 nM T3 present, 24 h

`ClC1=C(Cl)[C@]2(Cl)[C@H]3[C@H]([C@@H]4C=C[C@H]3C4)[C@@]1(Cl)C2(Cl)Cl` [Aldrin] showed a CC50 at 24 h of 46.1 µM.

same assay, conditions: rat, gh3-tre-luc cells, AC50 (uM) modified / 1000, Tox21_110001=Tox21_302045; viability, 1 nM T3 present, 24 h

`NCCOS(=O)(=O)O` [2-Aminoethyl hydrogen sulfate] gave a CC50 at 24 h of over 90 µM.

same assay, conditions: rat, gh3-tre-luc cells, AC50 (uM) modified / 1000, Tox21_110001=Tox21_302046; viability, 1 nM T3 present, 24 h

For `CCCCCCCCCCCCBr` [1-Bromododecane], the CC50 at 24 h was over 90 µM.

same assay, conditions: rat, gh3-tre-luc cells, AC50 (uM) modified / 1000, Tox21_110001=Tox21_302279; viability, 1 nM T3 present, 24 h

In the case of `O=C(O)c1ccccc1C(=O)Nc1cccc2ccccc12` [Naptalam], the CC50 at 24 h is reported as over 90 µM.

same assay, conditions: rat, gh3-tre-luc cells, AC50 (uM) modified / 1000, Tox21_110001=Tox21_302286; viability, 1 nM T3 present, 24 h

`C[C@]12CCC(=O)C(O)=C1CC[C@@H]1[C@@H]2CC[C@]2(C)C(=O)CC[C@@H]12` [4-Hydroxyandrostenedione] gave a CC50 at 24 h of over 90 µM.
